From US20230106592A1, “METHOD FOR TREATING CANCER USING A COMBINATION OF DNA DAMAGING AGENTS AND ATR INHIBITORS” (Vertex Pharmaceuticals Incorporated, priority 2015, published 2023)

Assay: Phase I trial, combination with carboplatin: adverse events and DLTs
Format: in vivo, human
Experimental: Pts with advanced solid tumors enrolled in 2 sequential parts.
In part A, single pt cohorts received a compound of Formula A-2 once weekly in 21-day cycles with 3+3 dose escalation cohorts being implemented if grade 2 drug-related adverse events (AEs) occurred. […] If a DLT was reported, the cohort was expanded to include 3 additional pts with subsequent dose escalation being permitted if no further DLTs occurred. Paired pre- and post-treatment biopsies from selected pts in part B were assessed for pCHK1 levels by immunohistochemistry. Models based on preclinical and clinical data were used to simulate hematologic toxicities and pCHK1 inhibition for pts treated with a compound of Formula A-2 and CP.

[1] = A-2 120 mg/m^2 + Carboplatin AUC4 (N = 3)
[2] = A-2 120 mg/m^2 + Carboplatin AUC5 (N = 3)
[3] = A-2 240 mg/m2 + Carboplatin AUC 5 (n = 3)
[4] = A-2 240 mg/m^2 + Carboplatin AUC5 (N = 3)
[5] = A-2 + Carboplatin, Total (N = 15)
[6] = A-2 + Carboplatin, Total (N = 19)

## CNCc1ccc(-c2cc(-c3nc(-c4ccc(S(=O)(=O)C(C)C)cc4)cnc3N)on2)cc1 [Compound A-2]
[1]
  Treatment related adverse event: Vomiting, All: 0
  Treatment related adverse event: Vomiting, ≥3: 0
[2]
  Treatment related adverse event: Alopecia, All: 0
  Treatment related adverse event: Alopecia, ≥3: 0
  Treatment related adverse event: Anemia, All: 2
  Treatment related adverse event: Anemia, ≥3: 0
  Treatment related adverse event: Fatigue, All: 1
  Treatment related adverse event: Fatigue, ≥3: 0
  Treatment related adverse event: Flushing, All: 1
  Treatment related adverse event: Flushing, ≥3: 1
  Treatment related adverse event: Headache, All: 0
  Treatment related adverse event: Headache, ≥3: 0
  Treatment related adverse event: Hypertension, All: 0
  Treatment related adverse event: Hypertension, ≥3: 0
  Treatment related adverse event: Nausea, All: 2
  Treatment related adverse event: Nausea, ≥3: 0
  Treatment related adverse event: Neuropathy peripheral, All: 0
  Treatment related adverse event: Neuropathy peripheral, ≥3: 0
  Treatment related adverse event: Neutropenia, All: 2
  Treatment related adverse event: Neutropenia, ≥3: 1
  Treatment related adverse event: Respiratory tract infection, All: 0
  Treatment related adverse event: Respiratory tract infection, ≥3: 0
  Treatment related adverse event: Thrombocytopenia, All: 1
  Treatment related adverse event: Thrombocytopenia, ≥3: 0
  Treatment related adverse event: Vomiting, All: 0
  Treatment related adverse event: Vomiting, ≥3: 0
[3]
  Treatment related adverse event: Alopecia, All Grades: 0 n (%)
  Treatment related adverse event: Alopecia, Grade ≥ 3: 0 n (%)
  Treatment related adverse event: Anemia, All Grades: 3 (100) n (%)
  Treatment related adverse event: Anemia, Grade ≥ 3: 0 n (%)
  Treatment related adverse event: Any Event, All Grades: 3 (100) n (%)
  Treatment related adverse event: Fatigue, Grade ≥ 3: 0 n (%)
  Treatment related adverse event: Flushing, All Grades: 1 (33.3) n (%)
  Treatment related adverse event: Flushing, Grade ≥ 3: 0 n (%)
  Treatment related adverse event: Headache, Grade ≥ 3: 0 n (%)
  Treatment related adverse event: Hypersensitivity, All Grades: 1 (33.3) n (%)
  Treatment related adverse event: Hypersensitivity, Grade ≥ 3: 0 n (%)
  Treatment related adverse event: Infusion related reaction, All Grades: 0 n (%)
  Treatment related adverse event: Infusion related reaction, Grade ≥ 3: 0 n (%)
  Treatment related adverse event: Nausea, All Grades: 3 (100) n (%)
  Treatment related adverse event: Nausea, Grade ≥ 3: 0 n (%)
  Treatment related adverse event: Neuropathy peripheral, Grade ≥ 3: 0 n (%)
  Treatment related adverse event: Neutropenia, All Grades: 3 (100) n (%)
  Treatment related adverse event: Pruritus, All Grades: 1 (33.3) n (%)
  Treatment related adverse event: Pruritus, Grade ≥ 3: 0 n (%)
  Treatment related adverse event: Thrombocytopenia, All Grades: 3 (100) n (%)
  Treatment related adverse event: Thrombocytopenia, Grade ≥ 3: 1 (33.3) n (%)
  Treatment related adverse event: Vomiting, Grade ≥ 3: 0 n (%)
[4]
  Treatment related adverse event: Alopecia, All: 0
  Treatment related adverse event: Alopecia, ≥3: 0
  Treatment related adverse event: Anemia, All: 3
  Treatment related adverse event: Anemia, ≥3: 0
  Treatment related adverse event: Fatigue, All: 2
  Treatment related adverse event: Fatigue, ≥3: 0
  Treatment related adverse event: Flushing, All: 1
  Treatment related adverse event: Flushing, ≥3: 0
  Treatment related adverse event: Headache, All: 2
  Treatment related adverse event: Headache, ≥3: 0
  Treatment related adverse event: Hypertension, All: 1
  Treatment related adverse event: Hypertension, ≥3: 1
  Treatment related adverse event: Nausea, All: 3
  Treatment related adverse event: Nausea, ≥3: 0
  Treatment related adverse event: Neuropathy peripheral, All: 2
  Treatment related adverse event: Neuropathy peripheral, ≥3: 0
  Treatment related adverse event: Neutropenia, All: 3
  Treatment related adverse event: Neutropenia, ≥3: 2
  Treatment related adverse event: Respiratory tract infection, All: 1
  Treatment related adverse event: Respiratory tract infection, ≥3: 1
  Treatment related adverse event: Thrombocytopenia, All: 3
  Treatment related adverse event: Thrombocytopenia, ≥3: 1
  Treatment related adverse event: Vomiting, All: 2
  Treatment related adverse event: Vomiting, ≥3: 0
[5]
  Treatment related adverse event: Alopecia, All: 2
  Treatment related adverse event: Alopecia, ≥3: 0
  Treatment related adverse event: Anemia, All: 9
  Treatment related adverse event: Anemia, ≥3: 0
  Treatment related adverse event: Fatigue, All: 6
  Treatment related adverse event: Fatigue, ≥3: 0
  Treatment related adverse event: Flushing, All: 3
  Treatment related adverse event: Flushing, ≥3: 1
  Treatment related adverse event: Headache, All: 2
  Treatment related adverse event: Headache, ≥3: 0
  Treatment related adverse event: Hypertension, All: 1
  Treatment related adverse event: Hypertension, ≥3: 1
  Treatment related adverse event: Nausea, All: 7
  Treatment related adverse event: Nausea, ≥3: 0
  Treatment related adverse event: Neuropathy peripheral, All: 2
  Treatment related adverse event: Neuropathy peripheral, ≥3: 0
  Treatment related adverse event: Neutropenia, All: 7
  Treatment related adverse event: Neutropenia, ≥3: 4
  Treatment related adverse event: Respiratory tract infection, All: 1
  Treatment related adverse event: Respiratory tract infection, ≥3: 1
  Treatment related adverse event: Thrombocytopenia, All: 7
  Treatment related adverse event: Thrombocytopenia, ≥3: 1
  Treatment related adverse event: Vomiting, All: 2
  Treatment related adverse event: Vomiting, ≥3: 0
[6]
  Treatment related adverse event: Alopecia, Grade ≥ 3: 0 n (%)
  Treatment related adverse event: Anemia, Grade ≥ 3: 0 n (%)
  Treatment related adverse event: Any Event, Grade ≥ 3: 5 (26.3) n (%)
  Treatment related adverse event: Fatigue, Grade ≥ 3: 0 n (%)
  Treatment related adverse event: Flushing, Grade ≥ 3: 0 n (%)
  Treatment related adverse event: Headache, Grade ≥ 3: 0 n (%)
  Treatment related adverse event: Hypersensitivity, Grade ≥ 3: 1 (5.3) n (%)
  Treatment related adverse event: Infusion related reaction, Grade ≥ 3: 0 n (%)
  Treatment related adverse event: Nausea, Grade ≥ 3: 0 n (%)
  Treatment related adverse event: Neuropathy peripheral, Grade ≥ 3: 0 n (%)
  Treatment related adverse event: Neutropenia, All Grades: 8 (42.1) n (%)
  Treatment related adverse event: Neutropenia, Grade ≥ 3: 4 (21.1) n (%)
  Treatment related adverse event: Pruritus, Grade ≥ 3: 0 n (%)
  Treatment related adverse event: Thrombocytopenia, Grade ≥ 3: 1 (5.3) n (%)
  Treatment related adverse event: Vomiting, Grade ≥ 3: 0 n (%)
Cohort 1: A-2 240 mg/m^2 + Carboplatin AUC 5 mg/mL·min, 3/3 evaluable, febrile neutropenia
  DLTs: 1 (febrile
Cohort 2: A-2 120 mg/m^2 + Carboplatin AUC 5 mg/mL·min, 3/3 evaluable, acute hypersensitivity
  DLTs: 1 (acute
Cohort 3: A-2 120 mg/m^2 + Carboplatin AUC 4 mg/mL·min, 3/3 evaluable
  DLTs: 0
Cohort 4: A-2 90 mg/m^2 + Carboplatin AUC 5 mg/mL·min, 10/10 evaluable, febrile neutropenia
  DLTs: 1 (febrile
DL1-2
  Non-DLT G3-4 AE: neutropenia: 4
DL1: Compound A-2 240 mg/m^2 + CP AUC 5 mg/mL·min (n=3)
  DLT: G4 neutropenia and fever: 1
DL2
  Non-DLT G3-4 AE: thrombocytopenia: 1
DL2: Compound A-2 120 mg/m^2 + CP AUC 5 mg/mL·min (n=3)
  DLT: G3 hypersensitivity: 1
DL3-4 (120 mg/m^2 + CP AUC 4; 90 mg/m^2 + CP AUC 5)
  G3-4 AEs: No G3-4 AEs
Part B, carboplatin day 1, Compound A-2 days 2 and 9, 14 pts
  Pts with DLT: 2 pts
Part B across the various DLs
  Grade 3/4-related AEs: 5 pts
Part B, dosage level B2
  DLT: grade 3 hypersensitivity: 1 pt
Part B, dosage levels B1 and B2
  DLT: grade 3/4 neutropenia: 2 pts
